Values of other authors, collected in article PMC3815949 (Microbial biotechnology, 2009).

Test system: DmpA
Format: biochemical, Brucella anthropi

NCCC(N)=O [H-β-Ala-NH2]
Km: ~1.5 mM

N[C@@H](Cc1cnc[nH]1)C(=O)O [L-histidine]
Km: ~51 mM
